Assay results published in ChEMBL document CHEMBL5365394, “Design, synthesis and biological evaluation of novel spiro-quinazolinone derivatives as chitin synthase inhibitors and antifungal agents” (Eur J Med Chem, 2023).
≈ marks a conversion by molar mass, not a printed value.

Key:
Candida tropicalis = test: Inhibition of Candida tropicalis ATCC 750 chitin synthase using […] as substrate at 300 ug/ml incubated for 1 hr by absorbance based assay relative to control; settings: dose 300.0 µg/ml
[1] = Inhibition of Candida tropicalis ATCC 750 chitin synthase using UDP-GlcNAc as substrate incubated for 1 hr by absorbance based assay
Candida albicans [2] = test: Antifungal activity against Candida albicans ATCC 76615 assessed as fungal growth inhibition incubated for 24 hrs by two-fold serial dilution method; type: functional
Aspergillus flavus [3] = test: Antifungal activity against Aspergillus flavus ATCC 16870 assessed as fungal growth inhibition incubated for 24 hrs by two-fold serial dilution method; type: functional
Aspergillus fumigatus [4] = test: Antifungal activity against Aspergillus fumigatus GIMCC 3.19 assessed as fungal growth inhibition incubated for 24 hrs by two-fold serial dilution method; type: functional
Cryptococcus neoformans [5] = test: Antifungal activity against Cryptococcus neoformans ATCC 32719 assessed as fungal growth inhibition incubated for 24 hrs by two-fold serial dilution method; type: functional
Aspergillus flavus [6] = test: Antifungal activity against Aspergillus flavus ATCC 16870 assessed as inhibition of cell wall synthesis incubated for 24 hrs in presence of sorbitol; type: functional
Candida albicans [7] = test: Antifungal activity against Candida albicans ATCC 76615 assessed as inhibition of cell wall synthesis incubated for 24 hrs in presence of sorbitol; type: functional
Aspergillus fumigatus [8] = test: Antifungal activity against Aspergillus fumigatus GIMCC 3.19 assessed as inhibition of cell wall synthesis incubated for 24 hrs in presence of sorbitol; type: functional
Cryptococcus neoformans [9] = test: Antifungal activity against Cryptococcus neoformans ATCC 32719 assessed as inhibition of cell wall synthesis incubated for 24 hrs in presence of sorbitol; type: functional
Candida albicans [10] = test: Antifungal activity against Fluconazole-resistant Candida albicans ATCC 76615R assessed as fungal growth inhibition; type: functional
Aspergillus flavus [11] = test: Antifungal activity against Fluconazole-resistant Aspergillus flavus ATCC 16870R assessed as fungal growth inhibition; type: functional
Aspergillus fumigatus [12] = test: Antifungal activity against Fluconazole-resistant Aspergillus fumigatus GIMCC 3.19R assessed as fungal growth inhibition; type: functional
Cryptococcus neoformans [13] = test: Antifungal activity against Fluconazole-resistant Cryptococcus neoformans ATCC 32719R assessed as fungal growth inhibition; type: functional
Candida albicans [14] = test: Antifungal activity against Micafungin-resistant Candida albicans ATCC 76615R assessed as fungal growth inhibition; type: functional
Candida albicans [15] = test: Synergistic antifungal activity against Candida albicans ATCC 76615 assessed as fluconazole MIC incubated for 24 hrs in by checkerboard broth microdilution method; type: functional
Aspergillus fumigatus [16] = test: Synergistic antifungal activity against Aspergillus fumigatus GIMCC 3.19 assessed as polyoxin B MIC incubated for 24 hrs by checkerboard broth microdilution method; type: functional
Aspergillus flavus [17] = test: Synergistic antifungal activity against Aspergillus flavus ATCC 16870 assessed as fluconazole MIC incubated for 24 hrs in by checkerboard broth microdilution method; type: functional
Aspergillus fumigatus [18] = test: Synergistic antifungal activity against Aspergillus fumigatus GIMCC 3.19 assessed as fluconazole MIC incubated for 24 hrs in by checkerboard broth microdilution method; type: functional
Cryptococcus neoformans [19] = test: Synergistic antifungal activity against Cryptococcus neoformans ATCC 32719 assessed as fluconazole MIC incubated for 24 hrs in by checkerboard broth microdilution method; type: functional
Candida albicans [20] = test: Synergistic antifungal activity against Candida albicans ATCC 76615 assessed as polyoxin B MIC incubated for 24 hrs by checkerboard broth microdilution method; type: functional
Aspergillus flavus [21] = test: Synergistic antifungal activity against Aspergillus flavus ATCC 16870 assessed as polyoxin B MIC incubated for 24 hrs by checkerboard broth microdilution method; type: functional
Cryptococcus neoformans [22] = test: Synergistic antifungal activity against Cryptococcus neoformans ATCC 32719 assessed as polyoxin B MIC incubated for 24 hrs in by checkerboard broth microdilution method; type: functional
Candida albicans [23] = test: Additive antifungal activity against Candida albicans ATCC 76615 assessed as fractional inhibitory concentration index incubated for 24 hrs in presence of fluconazole by checkerboard broth microdilution method; type: functional
Aspergillus flavus [24] = test: Additive antifungal activity against Aspergillus flavus ATCC 16870 assessed as fractional inhibitory concentration index incubated for 24 hrs in presence of fluconazole by checkerboard broth microdilution method; type: functional
Cryptococcus neoformans [25] = test: Additive antifungal activity against Cryptococcus neoformans ATCC 32719 assessed as fractional inhibitory concentration index incubated for 24 hrs in presence of fluconazole by checkerboard broth microdilution method; type: functional
Aspergillus fumigatus [26] = test: Synergistic antifungal activity against Aspergillus fumigatus GIMCC 3.19 assessed as fractional inhibitory concentration index incubated for 24 hrs in presence of fluconazole by checkerboard broth microdilution method; type: functional
Aspergillus flavus [27] = test: Additive antifungal activity against Aspergillus flavus ATCC 16870 assessed as fractional inhibitory concentration index incubated for 24 hrs in presence of polyoxin B by checkerboard broth microdilution method; type: functional
Cryptococcus neoformans [28] = test: Additive antifungal activity against Cryptococcus neoformans ATCC 32719 assessed as fractional inhibitory concentration index incubated for 24 hrs in presence of polyoxin B by checkerboard broth microdilution method; type: functional
Candida albicans [29] = test: Antifungal activity against Candida albicans ATCC 76615 assessed as inhibition of cell wall synthesis incubated for 24 hrs in absence of sorbitol; type: functional
Aspergillus flavus [30] = test: Antifungal activity against Aspergillus flavus ATCC 16870 assessed as inhibition of cell wall synthesis incubated for 24 hrs in absence of sorbitol; type: functional
Aspergillus fumigatus [31] = test: Antifungal activity against Aspergillus fumigatus GIMCC 3.19 assessed as inhibition of cell wall synthesis incubated for 24 hrs in absence of sorbitol; type: functional
Cryptococcus neoformans [32] = test: Antifungal activity against Cryptococcus neoformans ATCC 32719 assessed as inhibition of cell wall synthesis incubated for 24 hrs in absence of sorbitol; type: functional
Candida albicans [33] = test: Additive antifungal activity against Candida albicans ATCC 76615 assessed as fractional inhibitory concentration index incubated for 24 hrs in presence of polyoxin B by checkerboard broth microdilution method; type: functional
Aspergillus fumigatus [34] = test: Additive antifungal activity against Aspergillus fumigatus GIMCC 3.19 assessed as fractional inhibitory concentration index incubated for 24 hrs in presence of polyoxin B by checkerboard broth microdilution method; type: functional
Candida albicans [35] = test: Synergistic antifungal activity against Candida albicans ATCC 76615 assessed as fractional inhibitory concentration index incubated for 24 hrs in presence of polyoxin B by checkerboard broth microdilution method; type: functional
Aspergillus fumigatus [36] = test: Additive antifungal activity against Aspergillus fumigatus GIMCC 3.19 assessed as fractional inhibitory concentration index incubated for 24 hrs in presence of fluconazole by checkerboard broth microdilution method; type: functional

SMILES	inhibition (Candida tropicalis)	IC50 [1]	MIC (Candida albicans [2])	MIC (Aspergillus flavus [3])	MIC (Aspergillus fumigatus [4])	MIC (Cryptococcus neoformans [5])	MIC (Aspergillus flavus [6])	MIC (Candida albicans [7])	MIC (Aspergillus fumigatus [8])	MIC (Cryptococcus neoformans [9])	MIC (Candida albicans [10])	MIC (Aspergillus flavus [11])	MIC (Aspergillus fumigatus [12])	MIC (Cryptococcus neoformans [13])	MIC (Candida albicans [14])	MIC (Candida albicans [15])	MIC (Aspergillus fumigatus [16])	MIC (Aspergillus flavus [17])	MIC (Aspergillus fumigatus [18])	MIC (Cryptococcus neoformans [19])	further results
O=C(/C=C/C(=O)Nc1ccc(Cl)cc1Cl)Nc1ccc2c(c1)C(=O)NC1(CCSC1)N2 (stereo not given)	73.9%	137 µM	8 µg/mL (≈ 16.8 µM)	8 µg/mL (≈ 16.8 µM)	8 µg/mL (≈ 16.8 µM)	8 µg/mL (≈ 16.8 µM)	256 µg/mL	256 µg/mL	128 µg/mL	128 µg/mL	32 µg/mL (≈ 67 µM)	32 µg/mL (≈ 67 µM)	16 µg/mL (≈ 33.5 µM)	32 µg/mL (≈ 67 µM)	16 µg/mL (≈ 33.5 µM)	2 µg/mL	8 µg/mL	4 µg/mL	2 µg/mL	2 µg/mL	MIC (Candida albicans [20]): 2 µg/mL; MIC (Aspergillus flavus [21]): 16 µg/mL; MIC (Cryptococcus neoformans [22]): 16 µg/mL; fractional inhibitory concentration index (FICI) (Candida albicans [23]): 1.5; fractional inhibitory concentration index (FICI) (Aspergillus flavus [24]): 1.25; fractional inhibitory concentration index (FICI) (Cryptococcus neoformans [25]): 1.5; fractional inhibitory concentration index (FICI) (Aspergillus fumigatus [26]): 0.75; fractional inhibitory concentration index (FICI) (Aspergillus flavus [27]): 2; fractional inhibitory concentration index (FICI) (Cryptococcus neoformans [28]): 1.5; MIC (Candida albicans [29]): 16 µg/mL (≈ 33.5 µM); MIC (Aspergillus flavus [30]): 32 µg/mL (≈ 67 µM); MIC (Aspergillus fumigatus [31]): 16 µg/mL (≈ 33.5 µM); MIC (Cryptococcus neoformans [32]): 16 µg/mL (≈ 33.5 µM); fractional inhibitory concentration index (FICI) (Candida albicans [33]): 1.25; fractional inhibitory concentration index (FICI) (Aspergillus fumigatus [34]): 1.5
Cc1ccc([N+](=O)[O-])cc1NC(=O)/C=C/C(=O)Nc1ccc2c(c1)C(=O)NC1(CCSC1)N2 (stereo not given)	77.4%	123 µM	2 µg/mL (≈ 4.28 µM)	16 µg/mL (≈ 34.2 µM)	16 µg/mL (≈ 34.2 µM)	8 µg/mL (≈ 17.1 µM)	256 µg/mL	128 µg/mL	128 µg/mL	128 µg/mL	16 µg/mL (≈ 34.2 µM)	32 µg/mL (≈ 68.4 µM)	16 µg/mL (≈ 34.2 µM)	32 µg/mL (≈ 68.4 µM)	16 µg/mL (≈ 34.2 µM)	2 µg/mL	2 µg/mL	1 µg/mL	1 µg/mL	2 µg/mL	MIC (Candida albicans [20]): 2 µg/mL; MIC (Aspergillus flavus [21]): 2 µg/mL; MIC (Cryptococcus neoformans [22]): 16 µg/mL; fractional inhibitory concentration index (FICI) (Candida albicans [23]): 1.5; fractional inhibitory concentration index (FICI) (Aspergillus flavus [24]): 1.25; fractional inhibitory concentration index (FICI) (Cryptococcus neoformans [25]): 1.5; fractional inhibitory concentration index (FICI) (Candida albicans [35]): 0.5; fractional inhibitory concentration index (FICI) (Aspergillus flavus [27]): 1.125; fractional inhibitory concentration index (FICI) (Cryptococcus neoformans [28]): 1.5; MIC (Candida albicans [29]): 8 µg/mL (≈ 17.1 µM); MIC (Aspergillus flavus [30]): 16 µg/mL (≈ 34.2 µM); MIC (Aspergillus fumigatus [31]): 16 µg/mL (≈ 34.2 µM); MIC (Cryptococcus neoformans [32]): 16 µg/mL (≈ 34.2 µM); fractional inhibitory concentration index (FICI) (Aspergillus fumigatus [36]): 1.125; fractional inhibitory concentration index (FICI) (Aspergillus fumigatus [34]): 1.125
